Our source for the Activity values is ChEMBL document CHEMBL4376835, “Discovery of Nonpungent Transient Receptor Potential Vanilloid 1 (TRPV1) Agonist as Strong Topical Analgesic” (J Med Chem, 2020).

A short description of data set [1]: Genotoxicity in Salmonella typhimurium TA98 incubated for 48 hrs by Ames test. Type of data set: toxicity. To be noted: salmonella enterica subsp. enterica serovar typhimurium.
Data set [2] is described as follows: Genotoxicity in CHO-WBLT cells assessed as chromosomal aberration incubated for 6 hrs in presence of rat S9 by laser scan cytometry. Type of data set: toxicity, subcellular, Cricetulus griseus. To be noted: chinese hamster, s9, 6 h.

For the compound `CC(C)(C)c1nc(-c2cccc(Cl)c2)c(CNC(=O)Nc2ccc(CO)c(F)c2)s1`, the Activity result in data set [1] and in data set [2] was “Non-Toxic” throughout.
